Experiments:
EGFR-L858R/T790M/C797S = target: T1, EGFR-L858R/T790M/C797S (Homo sapiens, UniProt P00533, C797S/L858R/T790M); experiment: EGFR degradation HTRF assay in H1975-clone #25 cells; format: cell-based; settings: 16 h treatment; for DC50: H1975-clone #25 (L858R/T790M/C797S) cells, IC50 (DC50), read-out: DC50(nM) H1975 # 25-LTC; for Dmax: NCI-H1975, H1975-clone #25 (L858R/T790M/C797S) cells, maximum percentage of inhibition (degradation), read-out: Dmax (%) H1975 # 25-LTC
T1 construct: expressed in transfected cells; host or cells: H1975-clone #25 (lentiviral over-expression, endogenous EGFR knocked out)
Protocol: (§1) H1975-clone #28(Del19/T790M/C797S) and H1975-clone #25(L858R/T790M/C797S). EGFR-Del19/T790M/C797S and EGFR-L858R/T790M/C797S were stably expressed in H1975 cell lines by lentivirus-mediated over-expression, respectively. The EGFR over-expressed cells then underwent knockout, in which the EGFR targeting sgRNA was designed to only target the endogenous EGFR copies and preserve the exogenous EGFR copies. Followed by knockout, the edited H1975 cells were seeded in 96 well plates at the concentration of […], cultured for about 2 weeks to allow single clones formation. The formed clones were screened by DNA sequencing and whole exon sequencing analysis for the desired edition.
(§2) H1975-clone #28, and H1975-clone #25 were finally confirmed as homozygous Del19/T790M/C797S EGFR, and L858R/T790M/C797S EGFR clones, respectively.
(§3) H1975-#25 and H1975-#28 cells are treated with compounds diluted in 0.2% DMSO cell culture medium on day 2, incubate for 16 h, 37° C., 5% CO2. the final concentration of compounds in all assay is start with 10 uM, 5-fold dilution, total 8 doses were included.
(§4) After 16 h treatment, add HTRF lysis buffer to each well; seal the plate and incubate 1 hour at room temperature on a plate shaker; Once the cells are lysed, 16 μL of cell lysate are transferred to a PE 384-well HTRF detection plate; 4 μL of pre-mixed HTRF antibodies are added to each well; Cover the plate with a plate sealer, spin 1000 rpm for 1 min, Incubate overnight at room temperature; Read on BMG PheraStar with HTRF protocol (337 nm-665 nm-620 nm).
(§5) The inhibition (degradation) percentage of the compound was calculated by the following equation:
(§6) Inhibition percentage of Compound=100−100×(Signal−low control)/(High control−low control),
(§7) The IC50 (DC50) value of a compound can be obtained by fitting the following equation
(§8) Wherein, X and Y are known values, and IC50, Hillslope, Top and Bottom are the parameters obtained by fitting with software. Y is the inhibition percentage (calculated from the equation), X is the concentration of the compound; IC50 is the concentration of the compound when the 50% inhibition is reached. The smaller the IC50 value is, the stronger the inhibitory ability of the compound is. Vice versa, the higher the IC50 value is, the weaker the ability the inhibitory ability of the compound is; Hillslope represents the slope of the fitted curve, generally around 1 *; Bottom represents the minimum value of the curve obtained by data fitting, which is generally 0%±20%; Top represents the maximum value of the curve obtained by data fitting, which is generally 100%±20%. The experimental data were fitted by calculating and analyzing with Dotmatics data analysis software.

EGFR-Del19/T790M/C797S = experiment: EGFR degradation HTRF assay in H1975-clone #28 cells; format: cell-based; settings: H1975-clone #28 (Del19/T790M/C797S) cells, 16 h treatment; for DC50: IC50 (DC50), read-out: DC50(nM) H1975 # 28 DTC; for Dmax (%) H1975 # 28 DTC: maximum percentage of inhibition (degradation)
Protocol: as §1, §2, §3, §4, §5, §6, §7, §8

T1 sequence (P00533 25-1210 T790M/C797S/L858R): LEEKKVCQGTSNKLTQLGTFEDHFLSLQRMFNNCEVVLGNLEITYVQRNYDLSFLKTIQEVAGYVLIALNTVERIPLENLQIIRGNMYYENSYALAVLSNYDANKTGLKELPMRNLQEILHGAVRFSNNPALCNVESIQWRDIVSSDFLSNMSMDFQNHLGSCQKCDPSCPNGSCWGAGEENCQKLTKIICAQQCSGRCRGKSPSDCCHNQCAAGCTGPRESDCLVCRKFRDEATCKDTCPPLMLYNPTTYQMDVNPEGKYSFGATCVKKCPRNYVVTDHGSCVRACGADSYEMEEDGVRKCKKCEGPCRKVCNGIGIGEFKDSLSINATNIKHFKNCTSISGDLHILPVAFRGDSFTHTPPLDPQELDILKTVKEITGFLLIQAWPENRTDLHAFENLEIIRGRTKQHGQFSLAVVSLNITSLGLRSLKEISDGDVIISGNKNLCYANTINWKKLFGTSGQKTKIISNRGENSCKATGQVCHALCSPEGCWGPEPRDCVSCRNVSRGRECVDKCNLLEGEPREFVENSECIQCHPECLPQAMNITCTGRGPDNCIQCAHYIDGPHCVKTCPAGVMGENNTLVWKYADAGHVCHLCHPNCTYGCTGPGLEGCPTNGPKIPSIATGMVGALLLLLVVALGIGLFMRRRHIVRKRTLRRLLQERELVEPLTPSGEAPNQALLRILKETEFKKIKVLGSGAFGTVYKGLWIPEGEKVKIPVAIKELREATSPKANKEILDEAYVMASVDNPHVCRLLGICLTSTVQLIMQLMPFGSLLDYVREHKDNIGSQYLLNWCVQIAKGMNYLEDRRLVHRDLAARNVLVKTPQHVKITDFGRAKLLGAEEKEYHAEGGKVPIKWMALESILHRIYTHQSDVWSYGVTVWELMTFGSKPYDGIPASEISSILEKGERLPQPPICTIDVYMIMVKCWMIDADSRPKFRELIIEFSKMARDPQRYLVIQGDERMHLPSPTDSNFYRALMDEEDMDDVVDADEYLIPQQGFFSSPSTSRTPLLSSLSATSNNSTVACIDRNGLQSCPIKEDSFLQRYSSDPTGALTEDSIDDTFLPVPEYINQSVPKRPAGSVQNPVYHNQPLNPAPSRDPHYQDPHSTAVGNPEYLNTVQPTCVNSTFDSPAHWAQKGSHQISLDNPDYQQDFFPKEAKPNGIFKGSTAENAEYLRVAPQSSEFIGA

SMILES	DC50 (EGFR-L858R/T790M/C797S) [nM]	Dmax (EGFR-L858R/T790M/C797S) [%]	DC50 (EGFR-Del19/T790M/C797S) [nM]	Dmax (%) H1975 # 28 DTC (EGFR-Del19/T790M/C797S) [%]
CCc1cc(Nc2ncc(Br)c(Nc3ccc4nc(C)c(F)cc4c3P(C)(C)=O)n2)c(OC)cc1N1CCC2(CCN(CCN(C)c3cc(F)c([C@H]4CCC(=O)NC4=O)c(F)c3)CC2)CC1 [Example 44, (R)-3-(4-((2-(9-(4-((5-bromo-4-((5-(dimethylphosphoryl)-3-fluoro-2-methylquinolin-6-yl)amino)pyrimidin-2-yl)amino)-2-ethyl-5-methoxyphenyl)-3,9-diazaspiro[5.5]undecan-3-yl)ethyl)(methyl)amino)-2,6-difluorophenyl)piperidine-2,6-dione]	4.2	92	3.5	90
CCc1cc(Nc2ncc(Br)c(Nc3ccc4nc(C)c(F)cc4c3P(C)(C)=O)n2)c(OC)cc1N1CCC2(CC1)CCN(C1CN(c3cc(F)c([C@H]4CCC(=O)NC4=O)c(F)c3)C1)CC2 [Example 38, (R)-3-(4-(3-(9-(4-((5-bromo-4-((5-(dimethylphosphoryl)-3-fluoro-2-methylquinolin-6-yl)amino)pyrimidin-2-yl)amino)-2-ethyl-5-methoxyphenyl)-3,9-diazaspiro[5.5]undecan-3-yl)azetidin-1-yl)-2,6-difluorophenyl)piperidine-2,6-dione]	8.6	89	7.4	85
CCc1cc(Nc2ncc(Br)c(Nc3ccc4nc(C)c(F)cc4c3P(C)(C)=O)n2)c(OC)cc1N1CCC2(CCN(CCc3cc(F)c([C@H]4CCC(=O)NC4=O)c(F)c3)CC2)CC1 [Example 6, (R)-3-(4-(2-(9-(4-((5-bromo-4-((5-(dimethylphosphoryl)-3-fluoro-2-methylquinolin-6-yl)amino)pyrimidin-2-yl)amino)-2-ethyl-5-methoxyphenyl)-3,9-diazaspiro[5.5]undecan-3-yl)ethyl)-2,6-difluorophenyl)piperidine-2,6-dione]	9	89	3.1	80
CCc1cc(Nc2ncc(Br)c(Nc3ccc4nc(C)c(F)cc4c3P(C)(C)=O)n2)c(OC)cc1N1CCC2(CCN(CC3CCN(c4cc5c(cc4F)C(=O)N(C4CCC(=O)NC4=O)C5=O)CC3)CC2)CC1 (centres unmarked) [Example 47, 5-(4-((9-(4-((5-bromo-4-((5-(dimethylphosphoryl)-3-fluoro-2-methylquinolin-6-yl)amino)pyrimidin-2-yl)amino)-2-ethyl-5-methoxyphenyl)-3,9-diazaspiro[5.5]undecan-3-yl)methyl)piperidin-1-yl)-2-(2,6-dioxopiperidin-3-yl)-6-fluoroisoindoline-1,3-dione]	16	88	14.3	73
CCc1cc(Nc2ncc(Br)c(Nc3ccc4nc(C)c(F)cc4c3P(C)(C)=O)n2)c(OC)cc1N1CCC2(CCN(C(=O)CN3CCC(c4ccc(NC5CCC(=O)NC5=O)cc4)CC3)CC2)CC1 (single isomer, unassigned) [Example 29, 3-((4-(1-(2-(9-(4-((5-bromo-4-((5-(dimethylphosphoryl)-3-fluoro-2-methylquinolin-6-yl)amino)pyrimidin-2-yl)amino)-2-ethyl-5-methoxyphenyl)-3,9-diazaspiro[5.5]undecan-3-yl)-2-oxoethyl)piperidin-4-yl)phenyl)amino)piperidine-2,6-dione]	3.8	96	3.1	88

Now those with a lower DC50 (EGFR-L858R/T790M/C797S), led by results:

DC50 (EGFR-L858R/T790M/C797S) [nM]	Dmax (EGFR-L858R/T790M/C797S) [%]	DC50 (EGFR-Del19/T790M/C797S) [nM]	SMILES	Dmax (%) H1975 # 28 DTC (EGFR-Del19/T790M/C797S) [%]
2.9	87	1.7	CCc1cc(Nc2ncc(Br)c(Nc3ccc4nc(C)c(F)cc4c3P(C)(C)=O)n2)c(OC)cc1N1CCC(N2CCC3(CCN(c4cc(F)c([C@H]5CCC(=O)NC5=O)c(F)c4)C3)C2)CC1 (stereo partly drawn) [Example 17, (3R)-3-(4-(7-(1-(4-((5-bromo-4-((5-(dimethylphosphoryl)-3-fluoro-2-methylquinolin-6-yl)amino)pyrimidin-2-yl)amino)-2-ethyl-5-methoxyphenyl)piperidin-4-yl)-2,7-diazaspiro[4.4]nonan-2-yl)-2,6-difluorophenyl)piperidine-2,6-dione]	92
2.4	92	1.3	CCc1ccc2c(P(C)(C)=O)c(Nc3nc(Nc4cc(CC)c(N5CCC(N6CC7(CN(c8cc(F)c([C@H]9CCC(=O)NC9=O)c(F)c8)C7)C6)CC5)cc4OC)ncc3Br)ccc2n1 (single isomer, unassigned) [Example 27]	91
2.1	91	1.9	CCc1ccc2c(P(C)(C)=O)c(Nc3nc(Nc4cc(CC)c(N5CCC(N6CC(N7CCC(c8cc(F)c([C@H]9CCC(=O)NC9=O)c(F)c8)CC7)C6)CC5)cc4OC)ncc3Br)ccc2n1 [Example 14, (R)-3-(4-(1-(1-(1-(4-((5-bromo-4-((5-(dimethylphosphoryl)-2-ethylquinolin-6-yl)amino)pyrimidin-2-yl)amino)-2-ethyl-5-methoxyphenyl)piperidin-4-yl)azetidin-3-yl)piperidin-4-yl)-2,6-difluorophenyl)piperidine-2,6-dione]	89
1.8	78	0.6	CCc1ccc2c(P(C)(C)=O)c(Nc3nc(Nc4cc(CC)c(N5CCC(N6CCN(C7CN(c8cccc9c8n(C)c(=O)n9C8CCC(=O)NC8=O)C7)CC6)CC5)cc4OC)ncc3Br)ccc2n1 (centres unmarked) [Example 21, 3-(4-(3-(4-(1-(4-((5-bromo-4-((5-(dimethylphosphoryl)-2-ethylquinolin-6-yl)amino)pyrimidin-2-yl)amino)-2-ethyl-5-methoxyphenyl)piperidin-4-yl)piperazin-1-yl)azetidin-1-yl)-3-methyl-2-oxo-2,3-dihydro-1H-benzol[d]imidazol-1-yl)piperidine-2,6-dione]	77
1.5	91	2.1	CCc1cc(Nc2ncc(Br)c(Nc3ccc4nc(C)c(F)cc4c3P(C)(C)=O)n2)c(OC)cc1N1CCC2(CCN(CC3CN(c4cccc5c4CN(C4CCC(=O)NC4=O)C5=O)C3)CC2)CC1 (centres unmarked) [Example 33, 3-(4-(3-((9-(4-((5-bromo-4-((5-(dimethylphosphoryl)-3-fluoro-2-methylquinolin-6-yl)amino)pyrimidin-2-yl)amino)-2-ethyl-5-methoxyphenyl)-3,9-diazaspiro[5.5]undecan-3-yl)methyl)azetidin-1-yl)-1-oxoisoindolin-2-yl)piperidine-2,6-dione]	82
1.1	95	0.5	CCc1cc(Nc2ncc(Br)c(Nc3ccc4nc(C)c(F)cc4c3P(C)(C)=O)n2)c(OC)cc1N1CCC(N2CC3(CN(c4cc(F)c([C@H]5CCC(=O)NC5=O)c(F)c4)C3)C2)CC1 [Example 60, (R)-3-(4-(6-(1-(4-((5-bromo-4-((5-(dimethylphosphoryl)-3-fluoro-2-methylquinolin-6-yl)amino)pyrimidin-2-yl)amino)-2-ethyl-5-methoxyphenyl)piperidin-4-yl)-26-diazaspiro[3.3]heptan-2-yl)-2,6-difluorophenyl)piperidine-2,6-dione]	95
